In article PMC5486114, “Interactions between a Heparin Trisaccharide Library and FGF-1 Analyzed by NMR Methods” (International Journal of Molecular Sciences, 2017):
Where two headings read alike, the source gives them in different places.

What was measured:
Human recombinant FGF-1 [1] = target: T1, Human recombinant FGF-1 (Homo sapiens, UniProt P05230); assay: STD-NMR initial growth rates (STD0) of trisaccharides in presence of FGF-1; type: binding; settings: 600 MHz, 289 K, protein 19 µM, ligand 1.6 mM; for STD0 H1-A: anomeric proton of ring A; for STD0 H1-B: anomeric proton of ring B
T1 construct: Human recombinant FGF-1 consisting of 141 residues; purchased Peprotech; host or cells: E. coli

Human recombinant FGF-1 [2] = target: T1, Human recombinant FGF-1; assay: IC50 by selective T1 (T1sel) NMR at different ligand concentrations; type: binding; settings: T1sel method; 20 μM protein, ligand 80-640 μM
Protocol: (§1) IC50 values using STD-NMR were calculated for compound 1 at different concentrations based on the initial rates of the affinity factor method (Figure 5). […] In this case, due to the electrostatic nature of the complex, the gap between the protein and the ligand protons is very large, yielding low magnetization transfer values. On other hand, the small binding constant implies a large consumption of trisaccharide due to the high concentration needed to complete a meaningful titration curve. This, together with the large amount of time needed to record the full series of experiments, forced us to consider another method for the estimation of the IC50. Thus, we explored the IC50 calculation using selective T1 at different concentrations (Figure 6). Nevertheless, they are in agreement with the values obtained by Yu-Peng et al., when performing the same measure with disaccharides and FGF-2 by ITC [18].
Selective T1 NMR experiments. The samples were prepared using the same buffer at 20 μM protein concentration, while ligand concentration was 80, 160, 320, 480 and 640 μM. The ratios between protein and ligand were then 1:4, 1:8, 1:16, 1:24 and 1:32, respectively. We carry out studies on ^1H longitudinal relaxation rate (1/T1(sel). The relaxation times were measured by inversion recovery pulse sequence.
To determine the IC50, we adjusted the experimental values of the intensity signals vs. recovery delays to obtain an exponential function. We obtained the selective T1 value by f(t) = I0 × [1 − a × exp (−t/T1)]. In a ligand-receptor system where the ligand is present in large excess over the receptor binding sites, the ligand relaxation rate is describe by 1/T1obs = 1/T1free + fbound/(T1bound + tbound), where fbound is the fraction bound ([PL]/[L]) and τbound is the lifetime of the bound state. The relationship between total ligand concentration and T1 is then [P]0T1obs = ([L]0 + IC50)(T1bound + τbound), and a plot of [P]0 T1obs versus [L]0 gives a straight line with IC50 obtained from the intercept of the x axis.

Human recombinant FGF-1 [3] = target: T1, Human recombinant FGF-1; assay: IC50 by STD-NMR, initial rates of the STD affinity factor (STD0-AF); type: binding; settings: 600 MHz, 298 K; authors do not support validity of the result; read-out: IC50 (STD-NMR, STD0-AF method)
Protocol: as §1
STD-NMR Experiments. […]
IC50 was obtained using the initial rates of the STD affinity factor approximation. The STD-AF initial slopes (STD-AF0) were calculated as before from the curve of STD-AF vs. saturation time at several ligand concentrations. From these initial slopes, the binding isotherm was built (STD-AF0 vs. ligand concentration), and the curve fitted to a Langmuir equation, from which the IC50 value was determined.

Human recombinant FGF-1 [4] = target: T1, Human recombinant FGF-1; assay: STD-NMR initial growth rates (STD0) of trisaccharides in presence of FGF-1; type: binding; settings: for STD0 H1-C: anomeric proton of ring C, 600 MHz, 289 K, protein 19 µM, ligand 1.6 mM; for Relative STD0 H1-A / Relative STD0 H1-B / Relative STD0 H1-C: relative to largest anomeric STD0 of the compound (=100)
From the text: STD-NMR [30] studies were acquired for all the trisaccharides in the library in presence of FGF-1 using the same experimental conditions (see material and methods). Transference of saturation for all trisaccharides probed the interaction with the protein. Nevertheless, in contrast to the case of Langerin interaction, the results differed between the different compounds, indicating the existence of some differences in binding. Unfortunately, the spectral crowding only allowed us to accurately integrate the three anomeric signals along the saturation times, see Figure 3. Using a methodology previously described for disconnect the effect from proton relaxation on the STD values at a given time, the values of the initial rate of growth of STD (STD0) for the considered signals were obtained for the signals under consideration (Figure 4, Table 1). The distribution of magnetization along the trisaccharide chain is rather homogeneous, and is compatible with an extended interaction along the positive cleft of FGF-1, where the main binding site is located.
STD-NMR Experiments. All the samples were prepared in 250 μL 5 mM phostate buffer at pH 6.0 and 100 mM NaCl in 99.9% D2O. The concentration of the protein was 19 µM, and the ligand was 1.6 mM. The ratio between the protein and ligand was 1:84. The experiments were performed at 289 K. STD-NMR experiments were carried out with spin-lock to suppress protein signals. Moreover, we tried to suppress the solvent using excitation sculpting with gradients, and we used a shaped pulse train for saturation, alternating between on and off resonance. The on-resonance and off-resonance frequencies were set to 0.7 and 40 ppm, respectively. A spoil sequence was used to destroy unwanted magnetization. The saturation times were 0.5, 1, 2, 3 and 4 s, with an additional delay set to 3.6, 3.1, 2.1, 1.1 and 0.1, respectively, in order to keep the relaxation delay constant at […] for all experiments. STD NMR experiments were performed with 2048 scans with a total experimental time for every point of 5 h.
The STD initial rates (STD0) were calculated from the curve of STD vs. saturation time. To do so, we utilized the equation: STD0(t) = a [1 − exp (−bt)], where a represents the asymptotic maximum of the STD build-up curve (STDmax), b is a rate constant that depends on the relaxation properties of a given proton that measures the rate of the STD build-up (Ksat), and t is the saturation time (tsat). The STD0 values were obtained as the product of the ab coefficients.

[5] = target: WGA (Wheat Germen Agglutinin); settings: reported value, no reference given; cited from earlier work
[6] = target: WGA (Wheat Germen Agglutinin); assay: T1sel validation assay: binding of GlcNAc to WGA; settings: T1sel method; lectin 20 uM; preliminary assay
Protocol: page 7: Calculation of Binding Constants using T1sel. We have used the T1sel method for the evaluation of the KD binding. In order to assess the validity of the method we performed a preliminary assay using the known system of the binding of GlcNAc to WGA (Wheat […] Agglutinin) using a concentration of lectin of 20 uM. […] T1sel method is described in the experimental section of the main paper. (1 picture or pasted object on this page, not shown here)

T1 sequence (P05230 with tags, fused parts or gaps limits assumed): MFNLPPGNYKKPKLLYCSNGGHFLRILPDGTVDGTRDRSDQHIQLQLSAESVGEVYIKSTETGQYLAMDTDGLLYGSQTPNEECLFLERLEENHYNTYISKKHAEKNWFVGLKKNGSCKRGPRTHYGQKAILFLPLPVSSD

Compound | STD0 H1-A (Human recombinant FGF-1 [1]) | STD0 H1-B (Human recombinant FGF-1 [1]) | IC50 (Human recombinant FGF-1 [2]) [µM] | IC50 (Human recombinant FGF-1 [3]) [mM] | STD0 H1-C (Human recombinant FGF-1 [4]) | Relative STD0 H1-A (Human recombinant FGF-1 [4]) | Relative STD0 H1-B (Human recombinant FGF-1 [4]) | Relative STD0 H1-C (Human recombinant FGF-1 [4]) | Kd [5] [mM] | Kd [6] [mM]
CC(C)O[C@H]1O[C@H](COS(=O)(=O)O)[C@@H](O[C@@H]2O[C@@H](C(=O)O)[C@@H](O[C@H]3O[C@H](COS(=O)(=O)O)[C@@H](O)[C@H](O)[C@H]3NS(=O)(=O)O)[C@H](O)[C@H]2OS(=O)(=O)O)[C@H](O)[C@H]1NS(=O)(=O)O [Compound 1] | 0.28 | 0.34 | 49.2 ± 0.3 | 1.7 ± 0.01 | 0.42 | 66 | 80 | 100 |  | 
CC(=O)N[C@H]1[C@@H](OC(C)C)O[C@H](COS(=O)(=O)O)[C@@H](O[C@@H]2O[C@@H](C(=O)O)[C@@H](O[C@H]3O[C@H](COS(=O)(=O)O)[C@@H](O)[C@H](O)[C@H]3NS(=O)(=O)O)[C@H](O)[C@H]2OS(=O)(=O)O)[C@@H]1O [Compound 2] | 0.11 | 0.36 | 26.1 ± 0.7 |  | 0.24 | 31 | 100 | 68 |  | 
CC(C)O[C@H]1O[C@H](COS(=O)(=O)O)[C@@H](O[C@@H]2O[C@@H](C(=O)O)[C@@H](O[C@H]3O[C@H](CO)[C@@H](O)[C@H](O)[C@H]3NS(=O)(=O)O)[C@H](O)[C@H]2OS(=O)(=O)O)[C@H](O)[C@H]1NS(=O)(=O)O [Compound 3] | 0.17 | 0.23 | 15.4 ± 0.4 |  | 0.20 | 72 | 100 | 88 |  | 
CC(=O)N[C@H]1[C@@H](OC(C)C)O[C@H](COS(=O)(=O)O)[C@@H](O[C@@H]2O[C@@H](C(=O)O)[C@@H](O[C@H]3O[C@H](CO)[C@@H](O)[C@H](O)[C@H]3NS(=O)(=O)O)[C@H](O)[C@H]2OS(=O)(=O)O)[C@@H]1O [Compound 4] | 0.17 | 0.25 | 84.7 ± 0.4 | 1.7 | 0.24 | 67 | 100 | 94 |  | 
CC(C)O[C@H]1O[C@H](CO)[C@@H](O[C@@H]2O[C@@H](C(=O)O)[C@@H](O[C@H]3O[C@H](COS(=O)(=O)O)[C@@H](O)[C@H](O)[C@H]3NS(=O)(=O)O)[C@H](O)[C@H]2OS(=O)(=O)O)[C@H](O)[C@H]1NS(=O)(=O)O [Compound 5] | 0.07 | 0.06 | 50.6 ± 0.1 |  | 0.06 | 100 | 82 | 87 |  | 
CC(=O)N[C@H]1[C@@H](OC(C)C)O[C@H](CO)[C@@H](O[C@@H]2O[C@@H](C(=O)O)[C@@H](O[C@H]3O[C@H](COS(=O)(=O)O)[C@@H](O)[C@H](O)[C@H]3NS(=O)(=O)O)[C@H](O)[C@H]2OS(=O)(=O)O)[C@@H]1O [Compound 6] | 0.08 | 0.12 | 181 ± 5.5 |  | 0.12 | 62 | 100 | 94 |  | 
CC(C)O[C@H]1O[C@H](CO)[C@@H](O[C@@H]2O[C@@H](C(=O)O)[C@@H](O[C@H]3O[C@H](CO)[C@@H](O)[C@H](O)[C@H]3NS(=O)(=O)O)[C@H](O)[C@H]2OS(=O)(=O)O)[C@H](O)[C@H]1NS(=O)(=O)O [Compound 7] | 0.18 | 0.08 | 46.7 ± 0.9 |  | 0.11 | 100 | 48 | 64 |  | 
CC(=O)N[C@H]1[C@@H](OC(C)C)O[C@H](CO)[C@@H](O[C@@H]2O[C@@H](C(=O)O)[C@@H](O[C@H]3O[C@H](CO)[C@@H](O)[C@H](O)[C@H]3NS(=O)(=O)O)[C@H](O)[C@H]2OS(=O)(=O)O)[C@@H]1O [Compound 8] |  | 0.18 | 132 ± 1.8 |  | 0.19 |  | 99 | 100 |  | 
CC(=O)N[C@H]1C(O)O[C@H](CO)[C@@H](O)[C@@H]1O (stereo partly shown) [GlcNAc] |  |  |  |  |  |  |  |  | 2.5 | 2.1
